US20260356819A1, “OXOISOINDOLINYL-SUBSTITUTED […] DERIVATIVE AND USE THEREOF” (GLUETACS THERAPEUTICS (SHANGHAI) CO., LTD., priority 2023, published 2026)

Legend:
Format in all cases: cell-based
Conditions in all cases: compounds at 50 nM and 500 nM
[1] = biological target: T1, GSPT1 (Homo sapiens, UniProt P15170+Q96SW2); experiment: Western blot degradation of GSPT1 in hPBMCs (24 h)
T1 construct: The supernatant was aspirated as the extracted total cell protein; endogenous in cells; host or cells: human peripheral blood mononuclear cells (hPBMCs)
In short: (§1)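 Read-out is Western blot band grayscale, divided by internal control band and normalised to give percent target protein remaining; degradation rate is 1 minus that value. Cells were human PBMCs exposed to compound at 50 nM and 500 nM for 24 hours.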

[2] = biological target: T2, IKZF2 (Homo sapiens, UniProt Q96SW2+Q9UKS7); experiment: Western blot degradation of IKZF2 in hPBMCs (24 h)
T2 construct: The supernatant was aspirated as the extracted total cell protein; endogenous in cells; host or cells: human peripheral blood mononuclear cells (hPBMCs)
In short: as §1

[3] = biological target: T3, IKZF1 (Homo sapiens, UniProt Q13422+Q96SW2); experiment: Western blot degradation of IKZF1 in hPBMCs (24 h)
T3 construct: The supernatant was aspirated as the extracted total cell protein; endogenous in cells; host or cells: human peripheral blood mononuclear cells (hPBMCs)
In short: as §1

[4] = biological target: T4, CK1α (Homo sapiens, UniProt P48729+Q96SW2); experiment: Western blot degradation of CK1α in hPBMCs (24 h)
T4 construct: The supernatant was aspirated as the extracted total cell protein; endogenous in cells; host or cells: human peripheral blood mononuclear cells (hPBMCs)
In short: as §1

[5] = biological target: T5, WEE1 (Homo sapiens, UniProt P30291+Q96SW2); experiment: Western blot degradation of WEE1 in hPBMCs (24 h)
T5 construct: The supernatant was aspirated as the extracted total cell protein; endogenous in cells; host or cells: human peripheral blood mononuclear cells (hPBMCs)
In short: as §1

[6] = biological target: T6, IKZF3 (Homo sapiens, UniProt Q96SW2+Q9UKT9); experiment: Western blot degradation of IKZF3 in hPBMCs (24 h)
T6 construct: The supernatant was aspirated as the extracted total cell protein; endogenous in cells; host or cells: human peripheral blood mononuclear cells (hPBMCs)
In short: as §1

T1 sequence (P15170 whole entry): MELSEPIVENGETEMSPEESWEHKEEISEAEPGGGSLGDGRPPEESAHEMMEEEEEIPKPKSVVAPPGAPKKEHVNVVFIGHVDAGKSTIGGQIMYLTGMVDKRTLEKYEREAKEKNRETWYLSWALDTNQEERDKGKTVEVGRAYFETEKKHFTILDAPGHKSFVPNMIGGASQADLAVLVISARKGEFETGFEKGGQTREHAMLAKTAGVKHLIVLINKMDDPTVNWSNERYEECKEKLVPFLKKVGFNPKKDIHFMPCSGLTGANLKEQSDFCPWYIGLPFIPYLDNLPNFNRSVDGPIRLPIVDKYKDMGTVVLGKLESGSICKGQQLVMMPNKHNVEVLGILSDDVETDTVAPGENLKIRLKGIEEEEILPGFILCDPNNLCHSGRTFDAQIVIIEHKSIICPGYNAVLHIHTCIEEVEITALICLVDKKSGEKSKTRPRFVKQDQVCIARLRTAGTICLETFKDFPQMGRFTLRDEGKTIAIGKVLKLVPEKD
T1 sequence (Q96SW2 whole entry): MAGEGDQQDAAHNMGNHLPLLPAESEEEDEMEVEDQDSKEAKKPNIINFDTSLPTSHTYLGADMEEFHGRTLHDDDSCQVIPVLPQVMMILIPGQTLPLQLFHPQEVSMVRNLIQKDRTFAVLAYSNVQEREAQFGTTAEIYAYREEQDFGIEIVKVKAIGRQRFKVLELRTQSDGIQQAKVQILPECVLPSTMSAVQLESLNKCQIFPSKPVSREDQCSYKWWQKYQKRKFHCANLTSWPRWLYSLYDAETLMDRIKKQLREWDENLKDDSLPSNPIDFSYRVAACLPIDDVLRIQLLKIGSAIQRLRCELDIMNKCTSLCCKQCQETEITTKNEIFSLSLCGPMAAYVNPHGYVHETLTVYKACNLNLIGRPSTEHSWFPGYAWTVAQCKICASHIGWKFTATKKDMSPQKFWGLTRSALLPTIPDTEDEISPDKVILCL
T1 sequence (Q16531 whole entry partner): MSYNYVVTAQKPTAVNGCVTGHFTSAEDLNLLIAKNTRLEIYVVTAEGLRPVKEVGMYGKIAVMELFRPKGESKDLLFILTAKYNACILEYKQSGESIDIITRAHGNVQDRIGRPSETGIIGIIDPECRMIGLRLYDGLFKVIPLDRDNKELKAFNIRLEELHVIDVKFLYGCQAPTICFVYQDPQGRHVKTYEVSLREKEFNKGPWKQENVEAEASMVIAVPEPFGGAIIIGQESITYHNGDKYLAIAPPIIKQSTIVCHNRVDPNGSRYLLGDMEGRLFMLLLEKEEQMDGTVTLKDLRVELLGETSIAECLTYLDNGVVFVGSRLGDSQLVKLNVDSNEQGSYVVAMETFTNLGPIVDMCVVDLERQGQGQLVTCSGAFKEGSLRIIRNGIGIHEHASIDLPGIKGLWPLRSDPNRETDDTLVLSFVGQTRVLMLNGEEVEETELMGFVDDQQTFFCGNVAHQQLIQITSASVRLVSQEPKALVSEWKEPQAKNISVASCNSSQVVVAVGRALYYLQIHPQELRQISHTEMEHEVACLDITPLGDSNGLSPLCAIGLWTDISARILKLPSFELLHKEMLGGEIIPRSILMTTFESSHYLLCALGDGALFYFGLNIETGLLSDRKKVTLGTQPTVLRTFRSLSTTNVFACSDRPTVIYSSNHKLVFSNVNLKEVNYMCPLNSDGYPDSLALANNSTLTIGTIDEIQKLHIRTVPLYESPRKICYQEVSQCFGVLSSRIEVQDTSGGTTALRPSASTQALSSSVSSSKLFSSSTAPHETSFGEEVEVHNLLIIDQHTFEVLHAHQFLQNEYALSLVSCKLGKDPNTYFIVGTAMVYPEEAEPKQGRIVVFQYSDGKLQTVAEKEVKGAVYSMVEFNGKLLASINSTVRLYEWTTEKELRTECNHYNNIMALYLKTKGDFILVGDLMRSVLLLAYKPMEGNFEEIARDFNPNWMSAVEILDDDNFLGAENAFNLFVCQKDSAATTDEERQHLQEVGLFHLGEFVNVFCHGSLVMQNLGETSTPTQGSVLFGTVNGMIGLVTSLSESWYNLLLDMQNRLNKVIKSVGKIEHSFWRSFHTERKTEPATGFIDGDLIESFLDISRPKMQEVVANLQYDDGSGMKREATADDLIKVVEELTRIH
T6 sequence (Q9UKT9 whole entry): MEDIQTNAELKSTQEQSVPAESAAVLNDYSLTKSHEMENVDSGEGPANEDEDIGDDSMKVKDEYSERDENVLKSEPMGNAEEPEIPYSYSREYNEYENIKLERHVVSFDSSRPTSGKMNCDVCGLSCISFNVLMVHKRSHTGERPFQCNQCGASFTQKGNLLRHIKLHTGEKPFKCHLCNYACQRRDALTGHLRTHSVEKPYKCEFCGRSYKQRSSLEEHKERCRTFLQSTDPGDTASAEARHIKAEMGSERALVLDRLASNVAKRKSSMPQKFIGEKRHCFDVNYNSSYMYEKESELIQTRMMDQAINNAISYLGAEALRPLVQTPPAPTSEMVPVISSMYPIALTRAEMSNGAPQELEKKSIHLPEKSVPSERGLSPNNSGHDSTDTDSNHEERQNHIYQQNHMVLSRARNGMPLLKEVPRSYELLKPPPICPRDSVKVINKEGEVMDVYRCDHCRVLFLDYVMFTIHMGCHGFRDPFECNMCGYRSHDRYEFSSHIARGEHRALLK
T6 sequence (Q96SW2 whole entry): as the sequence (Q96SW2 whole entry) above
T6 sequence (Q16531 whole entry partner): as the sequence (Q16531 whole entry partner) above
T4 sequence (P48729 whole entry): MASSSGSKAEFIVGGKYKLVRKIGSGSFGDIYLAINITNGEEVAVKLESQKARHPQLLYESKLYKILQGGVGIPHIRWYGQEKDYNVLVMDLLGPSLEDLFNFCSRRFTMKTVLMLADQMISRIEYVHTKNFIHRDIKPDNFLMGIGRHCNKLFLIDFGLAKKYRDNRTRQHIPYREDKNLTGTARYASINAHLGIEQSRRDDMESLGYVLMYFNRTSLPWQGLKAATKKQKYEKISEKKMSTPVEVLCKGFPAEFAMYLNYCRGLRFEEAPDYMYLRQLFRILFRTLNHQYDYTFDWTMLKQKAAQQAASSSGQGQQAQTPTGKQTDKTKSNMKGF
T4 sequence (Q96SW2 whole entry): as the sequence (Q96SW2 whole entry) above
T4 sequence (Q16531 whole entry partner): as the sequence (Q16531 whole entry partner) above
T5 sequence (P30291 whole entry): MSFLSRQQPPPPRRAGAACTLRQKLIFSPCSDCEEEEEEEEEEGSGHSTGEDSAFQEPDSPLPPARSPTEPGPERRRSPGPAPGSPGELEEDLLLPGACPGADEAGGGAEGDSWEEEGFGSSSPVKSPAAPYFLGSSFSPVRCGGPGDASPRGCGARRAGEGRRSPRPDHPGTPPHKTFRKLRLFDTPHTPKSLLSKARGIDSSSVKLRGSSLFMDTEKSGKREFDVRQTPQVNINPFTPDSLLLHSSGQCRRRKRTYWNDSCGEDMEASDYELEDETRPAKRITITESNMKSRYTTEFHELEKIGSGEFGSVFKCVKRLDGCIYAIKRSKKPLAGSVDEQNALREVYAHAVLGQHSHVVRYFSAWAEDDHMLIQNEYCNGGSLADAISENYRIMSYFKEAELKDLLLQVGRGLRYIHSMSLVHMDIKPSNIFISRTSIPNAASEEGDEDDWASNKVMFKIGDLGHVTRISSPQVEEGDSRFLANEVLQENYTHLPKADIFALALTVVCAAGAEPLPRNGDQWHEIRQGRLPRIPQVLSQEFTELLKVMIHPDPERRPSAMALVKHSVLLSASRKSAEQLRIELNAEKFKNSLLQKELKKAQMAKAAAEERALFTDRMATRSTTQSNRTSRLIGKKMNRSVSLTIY
T5 sequence (Q96SW2 whole entry): as the sequence (Q96SW2 whole entry) above
T5 sequence (Q16531 whole entry partner): as the sequence (Q16531 whole entry partner) above
T3 sequence (Q13422 whole entry): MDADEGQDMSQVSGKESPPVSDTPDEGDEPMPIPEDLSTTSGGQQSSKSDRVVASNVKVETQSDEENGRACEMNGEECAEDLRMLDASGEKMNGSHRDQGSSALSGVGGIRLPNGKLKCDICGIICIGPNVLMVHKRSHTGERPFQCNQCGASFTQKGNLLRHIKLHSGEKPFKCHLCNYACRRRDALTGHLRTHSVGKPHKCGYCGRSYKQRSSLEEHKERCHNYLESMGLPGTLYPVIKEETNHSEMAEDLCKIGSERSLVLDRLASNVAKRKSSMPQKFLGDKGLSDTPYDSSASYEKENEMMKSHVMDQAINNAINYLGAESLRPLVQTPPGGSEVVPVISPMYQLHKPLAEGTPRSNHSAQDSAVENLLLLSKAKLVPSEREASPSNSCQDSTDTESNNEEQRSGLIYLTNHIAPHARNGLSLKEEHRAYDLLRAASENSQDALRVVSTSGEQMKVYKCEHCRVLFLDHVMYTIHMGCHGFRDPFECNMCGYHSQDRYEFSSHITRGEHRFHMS
T3 sequence (Q96SW2 whole entry): as the sequence (Q96SW2 whole entry) above
T3 sequence (Q16531 whole entry partner): as the sequence (Q16531 whole entry partner) above

| Structure (SMILES) | GSPT1 substrate protein remaining % [1] | IKZF2 substrate protein remaining % [2] | IKZF1 substrate protein remaining % [3] | CK1α substrate protein remaining % [4] | WEE1 substrate protein remaining % [5] | IKZF3 substrate protein remaining % [6] |
| --- | --- | --- | --- | --- | --- | --- |
| O=C1CCN(N2C(=O)c3ccc(CN4CCC(c5cccs5)CC4)cc3C2=O)C(=O)N1 [GT-07424, 2-(2,4-dioxotetrahydropyrimidin-1(2H)-yl)-5-((4-(thiophen-2-yl)piperidin-1-yl)methyl)isoindoline-1,3-dione] | A (0% ≤ substrate protein remaining % ≤80%) | B (80%< substrate protein remaining % ≤100%) | A (0% ≤ substrate protein remaining % ≤80%) | B (80%< substrate protein remaining % ≤100%) | A (0% ≤ substrate protein remaining % ≤80%) | A (0% ≤ substrate protein remaining % ≤80%) |
| O=C1CCN(N2Cc3cc(CN4CC=C(c5ncccc5F)CC4)ccc3C2=O)C(=O)N1 [GT-06395, 1-(5-((3-fluoro-3′,6′-dihydro-[2,4′-bipyridin]-1′ (2′H)-yl)methyl)-1-oxoisoindolin-2-yl)dihydropyrimidine-2,4(1H,3H)-dione] | A (0% ≤ substrate protein remaining % ≤80%) | B (80%< substrate protein remaining % ≤100%) | B (80%< substrate protein remaining % ≤100%) | A (0% ≤ substrate protein remaining % ≤80%) | B (80%< substrate protein remaining % ≤100%) | B (80%< substrate protein remaining % ≤100%) |
| O=C1CCN(N2Cc3cc(CN4CCC(c5ncnc6sc7c(c56)CCCC7)CC4)ccc3C2=O)C(=O)N1 [GT-08112, 1-(1-oxo-5-((4-(5,6,7,8-tetrahydrobenzo[4,5]thieno[2,3-d]pyrimidin-4-yl)piperidin-1-yl)methyl)isoindolin-2-yl)dihydropyrimidine-2,4(1H,3H)-dione] | A (0% ≤ substrate protein remaining % ≤80%) | B (80%< substrate protein remaining % ≤100%) | B (80%< substrate protein remaining % ≤100%) | B (80%< substrate protein remaining % ≤100%) | B (80%< substrate protein remaining % ≤100%) | B (80%< substrate protein remaining % ≤100%) |
| O=C1CCN(N2C(=O)c3ccc(CN4CCC(c5ccsc5)CC4)cc3C2=O)C(=O)N1 [GT-07420, 2-(2,4-dioxotetrahydropyrimidin-1(2H)-yl)-5-((4-(thiophen-3-yl)piperidin-1-yl)methyl)isoindoline-1,3-dione] | A (0% ≤ substrate protein remaining % ≤80%) | B (80%< substrate protein remaining % ≤100%) | B (80%< substrate protein remaining % ≤100%) | A (0% ≤ substrate protein remaining % ≤80%) | B (80%< substrate protein remaining % ≤100%) | B (80%< substrate protein remaining % ≤100%) |
| O=C1CCN(N2C(=O)c3ccc(CN4CCN(c5c(F)cccc5F)CC4)cc3C2=O)C(=O)N1 [GT-06796, 5-((4-(2,6-difluorophenyl)piperazin-1-yl)methyl)-2-(2,4-dioxotetrahydropyrimidin-1(2H)-yl)isoindoline-1,3-dione] | B (80%< substrate protein remaining % ≤100%) | B (80%< substrate protein remaining % ≤100%) | B (80%< substrate protein remaining % ≤100%) | B (80%< substrate protein remaining % ≤100%) | A (0% ≤ substrate protein remaining % ≤80%) | B (80%< substrate protein remaining % ≤100%) |
| Cc1cc(N2CCN(Cc3ccc4c(c3)CN(N3CCC(=O)NC3=O)C4=O)CC2)ccn1 [GT-05438, 1-(5-((4-(2-methylpyridin-4-yl)piperazin-1-yl)methyl)-1-oxoisoindolin-2-yl)dihydropyrimidine-2,4(1H,3H)-dione] | A (0% ≤ substrate protein remaining % ≤80%) | B (80%< substrate protein remaining % ≤100%) | A (0% ≤ substrate protein remaining % ≤80%) | A (0% ≤ substrate protein remaining % ≤80%) | A (0% ≤ substrate protein remaining % ≤80%) | A (0% ≤ substrate protein remaining % ≤80%) |
| O=C1CCN(N2C(=O)c3ccc(CN4CCN(c5ncnc6sc(-c7ccccc7)cc56)CC4)cc3C2=O)C(=O)N1 [GT-08097, 2-(2,4-dioxotetrahydropyrimidin-1(2H)-yl)-5-((4-(6-phenylthieno[2,3-d]pyrimidin-4-yl)piperazin-1-yl)methyl)isoindoline-1,3-dione] | A (0% ≤ substrate protein remaining % ≤80%) | B (80%< substrate protein remaining % ≤100%) | B (80%< substrate protein remaining % ≤100%) | A (0% ≤ substrate protein remaining % ≤80%) | A (0% ≤ substrate protein remaining % ≤80%) | B (80%< substrate protein remaining % ≤100%) |
| O=C1CCN(N2Cc3cc(CN4CCC(c5ccccc5C(F)(F)F)CC4)ccc3C2=O)C(=O)N1 [GT-06891, 1-(1-oxo-5-((4-(2-(trifluoromethyl)phenyl)piperidin-1-yl)methyl)isoindolin-2-yl)dihydropyrimidine-2,4(1H,3H)-dione] | A (0% ≤ substrate protein remaining % ≤80%) | A (0% ≤ substrate protein remaining % ≤80%) | B (80%< substrate protein remaining % ≤100%) | B (80%< substrate protein remaining % ≤100%) | A (0% ≤ substrate protein remaining % ≤80%) | B (80%< substrate protein remaining % ≤100%) |
| Cc1csc2ncnc(N3CCN(Cc4ccc5c(c4)CN(N4CCC(=O)NC4=O)C5=O)CC3)c12 [GT-08058, 1-(5-((4-(5-methylthieno[2,3-d]pyrimidin-4-yl)piperazin-1-yl)methyl)-1-oxoisoindolin-2-yl)dihydropyrimidine-2,4(1H,3H)-dione] | B (80%< substrate protein remaining % ≤100%) | B (80%< substrate protein remaining % ≤100%) | A (0% ≤ substrate protein remaining % ≤80%) | B (80%< substrate protein remaining % ≤100%) | B (80%< substrate protein remaining % ≤100%) | B (80%< substrate protein remaining % ≤100%) |
| O=C1CCN(N2Cc3cc(CN4CCN(c5ccnc(Cl)c5F)CC4)ccc3C2=O)C(=O)N1 [GT-07069, 1-(5-((4-(2-chloro-3-fluoropyridin-4-yl)piperazin-1-yl)methyl)-1-oxoisoindolin-2-yl)dihydropyrimidine-2,4(1H,3H)-dione] | B (80%< substrate protein remaining % ≤100%) | B (80%< substrate protein remaining % ≤100%) | B (80%< substrate protein remaining % ≤100%) | B (80%< substrate protein remaining % ≤100%) | A (0% ≤ substrate protein remaining % ≤80%) | B (80%< substrate protein remaining % ≤100%) |
| Cc1nc(C2CCN(Cc3ccc4c(c3)C(=O)N(N3CCC(=O)NC3=O)C4=O)CC2)c2ccsc2n1 [GT-05272, 2-(2,4-dioxotetrahydropyrimidin-1(2H)-yl)-5-((4-(2-methylthieno[2,3-d]pyrimidin-4-yl)piperidin-1-yl)methyl)isoindoline-1,3-dione] | B (80%< substrate protein remaining % ≤100%) | A (0% ≤ substrate protein remaining % ≤80%) | B (80%< substrate protein remaining % ≤100%) | B (80%< substrate protein remaining % ≤100%) | B (80%< substrate protein remaining % ≤100%) | B (80%< substrate protein remaining % ≤100%) |
